# Test results published in patent US10785975B2, “Water and feed antimicrobial preservative” (priority 2009, dated 2020).
# System: Salmonella typhimurium
# Test: Example 1: effect of pH buffering of acetic and propionic acid on antimicrobial activity in water
# Assay type: cell-based
# Conditions: for MIC at 24 HR / MIC at 4 Hr: Minimum Inhibitory Concentrations, by linear regression over 0.025-0.1% acid solutions
# Experimental: Propionic and acetic acids were buffered with ammonium hydroxide to pHs ranging from 1 to 7. Acid contents of the buffered solutions were determined by a weight to weight ratio calculation to obtain the same acid content in the test solutions. […] The pHs of the deionized water solutions were recorded and any problems with solubility noted.
# 100 ul of a nutrient broth culture of Salmonella typhimurium was added to each dilution tube. After addition, tubes were vortexed and allowed to stand. At 4 and 24 hours after addition of the inoculum, 100 ul of the solution was plated on Standard Plate agar (triplicate plates). Plates were incubated at 37° C. for 24 hours prior to enumeration. The minimum effective dose of each acid was determined by linear regression.
# [1] = Product Conc. 0.025 (% acid solution in water)
# [2] = Product Conc. 0.05 (% acid solution in water)
# [3] = Product Conc. 0.075 (% acid solution in water)
# [4] = Product Conc. 0.1 (% acid solution in water)
SMILES,Salmonella at time Interval 4 hr % reduction [1] [%],Salmonella at time Interval 4 hr cfu/g [1] [cfu/g],Salmonella at time Interval 24 hr % reduction [1] [%],Salmonella at time Interval 24 hr cfu/g [1] [cfu/g],Salmonella at time Interval 4 hr % reduction [2] [%],Salmonella at time Interval 4 hr cfu/g [2] [cfu/g],Salmonella at time Interval 24 hr % reduction [2] [%],Salmonella at time Interval 24 hr cfu/g [2] [cfu/g],Salmonella at time Interval 4 hr % reduction [3] [%],Salmonella at time Interval 4 hr cfu/g [3] [cfu/g],Salmonella at time Interval 24 hr % reduction [3] [%],Salmonella at time Interval 24 hr cfu/g [3] [cfu/g],Salmonella at time Interval 4 hr % reduction [4] [%],Salmonella at time Interval 4 hr cfu/g [4] [cfu/g],Salmonella at time Interval 24 hr % reduction [4] [%],Salmonella at time Interval 24 hr cfu/g [4] [cfu/g],other results
"CC(=O)O [Acetic pH 1, Acetic acid]",41,883,91,107,50,750,99,7,59,617,99,17,65,520,99,7,MIC at 24 HR (pH 1): 0.065
"CC(=O)O [Acetic pH 2, Acetic acid]",39,920,86,170,46,817,96,50,55,673,98,20,55,670,99,17,MIC at 4 Hr (pH 2): 0.142; MIC at 24 HR (pH 2): 0.067
"CC(=O)O [Acetic pH 4, Acetic acid]",29,1067,54,543,22,1167,66,407,27,1097,78,263,22,1167,84,183,MIC at 4 Hr (pH 4): 0.207; MIC at 24 HR (pH 4): 0.096
"CC(=O)O [Acetic pH 5, Acetic acid]",16,1267,16,993,0,1533,26,873,9,1367,32,805,14,1300,49,597,MIC at 4 Hr (pH 5): 0.238; MIC at 24 HR (pH 5): 0.210
"CC(=O)O [Acetic pH 6, Acetic acid]",0,1500,1,1167,0,1767,0,1400,0,1667,0,1400,0,1633,0,1433,
"CC(=O)O [Acetic pH 7, Acetic acid]",0,1567,0,,0,1600,0,1433,2,1467,0,1433,0,1567,0,,
"CCC(=O)O [Propionic pH 1, Propionic acid]",20,1200,89,133,39,923,97,37,65,530,98,23,70,450,99,10,MIC at 4 Hr (pH 1): 0.131; MIC at 24 HR (pH 1): 0.066
"CCC(=O)O [Propionic pH 2, Propionic acid]",29,1067,94,70,51,733,99,10,68,477,99,13,75,380,99,7,MIC at 4 Hr (pH 2): 0.120; MIC at 24 HR (pH 2): 0.064
